Laboratory results from patent US9399635B2, “Pyrazole derivative” (GREEN TECH CO., LTD., priority 2011, dated 2016).

Row | SMILES | melting point
1 | C(=C\c1cc(/C=C/c2ccc3[nH]ccc3c2)[nH]n1)/c1ccc(OCc2ccccn2)cc1 [Example 4, 3-[(1E)-2-(1H-indol-5-yl)ethenyl]-5-[(1E)-2-[4-(2-pyridylmethoxy)phenyl]ethenyl]-1H-pyrazole] | 95 to 102 °C
2 | COc1cc(/C=C/c2cc(/C=C/c3ccc4[nH]ccc4c3)[nH]n2)ccc1OCc1ccccn1 [Example 5, 3-[(1E)-2-(1H-indol-5-yl)ethenyl]-5-[(1E)-2-[3-methoxy-4-(2-pyridylmethoxy)phenyl]ethenyl]-1H-pyrazole] | 96 to 101 °C
3 | COc1ccc(/C=C/c2cc(/C=C/c3ccc4[nH]ccc4c3)[nH]n2)cc1OCc1ccccn1 [Example 6, 3-[(1E)-2-(1H-indol-5-yl)ethenyl]-5-[(1E)-2-[4-methoxy-3-(2-pyridylmethoxy)phenyl]ethenyl]-1H-pyrazole] | 109 to 118 °C
4 | C(=C\c1cc(/C=C/c2ccc3[nH]ccc3c2)[nH]n1)/c1cccc(OCc2ccccn2)c1 [Example 7, 3-[(1E)-2-(1H-indol-5-yl)ethenyl]-5-[(1E)-2-[3-(2-pyridylmethoxy)phenyl]ethenyl]-1H-pyrazole] | 183 to 186 °C
5 | C(=C\c1cc(/C=C/c2c[nH]c3ccccc23)[nH]n1)/c1ccc(OCc2ccccn2)cc1 [Example 10, 3-[(1E)-2-(1H-indol-3-yl)ethenyl]-5-[(1E)-2-[4-(2-pyridylmethoxy)phenyl]ethenyl]-1H-pyrazole] | 196 to 199 °C
6 | COc1cc(/C=C/c2cc(/C=C/c3c[nH]c4ccccc34)[nH]n2)ccc1OCc1ccccn1 [Example 11, 3-[(1E)-2-(1H-indol-3-yl)ethenyl]-5-[(1E)-2-[3-methoxy-4-(2-pyridylmethoxy)phenyl]ethenyl]-1H-pyrazole] | 120 to 130 °C
7 | COc1ccc(/C=C/c2cc(/C=C/c3c[nH]c4ccccc34)[nH]n2)cc1OCc1ccccn1 [Example 12, 3-[(1E)-2-(1H-indol-3-yl)ethenyl]-5-[(1E)-2-[4-methoxy-3-(2-pyridylmethoxy)phenyl]ethenyl]-1H-pyrazole] | 232 to 243 °C
8 | C(=C\c1cc(/C=C/c2c[nH]c3ccccc23)[nH]n1)/c1cccc(OCc2ccccn2)c1 [Example 13, 3-[(1E)-2-(1H-indol-3-yl)ethenyl]-5-[(1E)-2-[3-(2-pyridylmethoxy)phenyl]ethenyl]-1H-pyrazole] | 198 to 201 °C
9 | C(=C\c1cc(/C=C/c2ccc3cc[nH]c3c2)[nH]n1)/c1ccc(OCc2ccccn2)cc1 [Example 16, 3-[(1E)-2-(1H-indol-6-yl)ethenyl]-5-[(1E)-2-[4-(2-pyridylmethoxy)phenyl]ethenyl]-1H-pyrazole] | 211 to 214 °C
10 | COc1cc(/C=C/c2cc(/C=C/c3ccc4cc[nH]c4c3)[nH]n2)ccc1OCc1ccccn1 [Example 17, 3-[(1E)-2-(1H-indol-6-yl)ethenyl]-5-[(1E)-2-[3-methoxy-4-(2-pyridylmethoxy)phenyl]ethenyl]-1H-pyrazole] | 236 to 243 °C
11 | COc1ccc(/C=C/c2cc(/C=C/c3ccc4cc[nH]c4c3)[nH]n2)cc1OCc1ccccn1 [Example 18, 3-[(1E)-2-(1H-indol-6-yl)ethenyl]-5-[(1E)-2-[4-methoxy-3-(2-pyridylmethoxy)phenyl]ethenyl]-1H-pyrazole] | 110 to 117 °C
12 | C(=C\c1cc(/C=C/c2ccc3cc[nH]c3c2)[nH]n1)/c1cccc(OCc2ccccn2)c1 [Example 19, 3-[(1E)-2-(1H-indol-6-yl)ethenyl]-5-[(1E)-2-[3-(2-pyridylmethoxy)phenyl]ethenyl]-1H-pyrazole] | 193 to 195 °C
13 | COc1c(/C=C/c2cc(/C=C/c3ccc4cc[nH]c4c3)[nH]n2)cccc1OCc1ccccn1 [Example 22, 3-[(1E)-2-(1H-indol-6-yl)ethenyl]-5-[(1E)-2-[2-methoxy-3-(2-pyridylmethoxy)phenyl]ethenyl]-1H -pyrazole] | 109 to 114 °C
14 | COc1cc(/C=C/c2cc(/C=C/c3ccc4cc[nH]c4c3)[nH]n2)cc(OCc2ccccn2)c1 [Example 25, 3-[(1E)-2-(1H-indol-6-yl)ethenyl]-5-[(1E)-2-[3-methoxy-5-(2-pyridylmethoxy)phenyl]ethenyl]-1H-pyrazole] | 88 to 93 °C
15 | COc1cc(OCCN2CCCCC2)ccc1/C=C/c1cc(/C=C/c2ccc3cc[nH]c3c2)[nH]n1 [Example 26, 3-[(1E)-2-(1H-indol-6-yl)ethenyl]-5-[(1E)-2-[2-methoxy-4-(2-piperidinoethoxy)phenyl]ethenyl]-1H-pyrazole] | 150 to 155 °C
16 | COc1cc(OCCN2CCN(C)CC2)ccc1/C=C/c1cc(/C=C/c2ccc3cc[nH]c3c2)[nH]n1 [Example 28, 3-[(1E)-2-(1H-indol-6-yl)ethenyl]-5-[(1E)-2-[2-methoxy-4-[2-(4-methylpiperazino)ethoxy]phenyl]ethenyl]-1H-pyrazole] | 134 to 142 °C
17 | COc1cc(O[C@@H]2O[C@H](CO)[C@@H](O)[C@H](O)[C@H]2O)ccc1/C=C/c1cc(/C=C/c2ccc3cc[nH]c3c2)[nH]n1 [Example 29, 3-[(1E)-2-(1H-indol-6-yl)ethenyl]-5-[(1E)-2-[4-[(β-D-glucopyranosyl)oxy]-2-methoxyphenyl]ethenyl]-1H-pyrazole] | 194 to 199 °C
18 | COc1cc(OCc2ccccn2)ccc1/C=C/c1cc(/C=C/c2ccc3[nH]nnc3c2)[nH]n1 [Example 30, 3-[(1E)-2-(1H-benzotriazol-5-yl)ethenyl]-5-[(1E)-2-[2-methoxy-4-(2-pyridylmethoxy)phenyl]ethenyl]-1H-pyrazole] | 113 to 120 °C
19 | COc1cc(OCc2ccccn2)ccc1/C=C/c1cc(/C=C/c2ccc3nccnc3c2)[nH]n1 [Example 32, 3-[(1E)-2-[2-methoxy-4-(2-pyridylmethoxy)phenyl]ethenyl]-5-[(1E)-2-(quinoxalin-6-yl)ethenyl]-1H-pyrazole] | 205 to 213 °C
20 | COc1cc(OCc2ccccn2)ccc1/C=C/c1cc(/C=C/c2cc3ccccc3o2)[nH]n1 [Example 33, 3-[(1E)-2-(benzofuran-2-yl)ethenyl]-5-[(1E)-2-[2-methoxy-4-(2-pyridylmethoxy)phenyl]ethenyl]-1H-pyrazole] | 199.4 to 200.9 °C
21 | COc1cc(OCc2ccccn2)ccc1/C=C/c1cc(/C=C/c2cc3ccccc3s2)[nH]n1 [Example 34, 3-[(1E)-2-(benzothiophen-2-yl)ethenyl]-5-[(1E)-2-[2-methoxy-4-(2-pyridylmethoxy)phenyl]ethenyl]-1H-pyrazole] | 231.1 to 232.1 °C
22 | COc1cc(OCc2ccccn2)ccc1/C=C/c1cc(/C=C/c2c[nH]c3ccccc23)[nH]n1 [Example 38, 3-[(1E)-2-(1H-indol-3-yl)ethenyl]-5-[(1E)-2-[2-methoxy-4-(2-pyridylmethoxy)phenyl]ethenyl]-1H-pyrazole] | 112 to 116 °C
23 | COc1cc(OCc2ccccn2)ccc1/C=C/c1cc(/C=C/c2cccc3[nH]ccc23)[nH]n1 [Example 39, 3-[(1E)-2-(1H-indol-4-yl)ethenyl]-5-[(1E)-2-[2-methoxy-4-(2-pyridylmethoxy)phenyl]ethenyl]-1H-pyrazole] | 108 to 113 °C
24 | COc1cc(OCc2ccccn2)ccc1/C=C/c1cc(/C=C/c2ccc3[nH]ccc3c2)[nH]n1 [Example 40, 3-[(1E)-2-(1H-indol-5-yl)ethenyl]-5-[(1E)-2-[2-methoxy-4-(2-pyridylmethoxy)phenyl]ethenyl]-1H-pyrazole] | 98 to 104 °C
